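Method: 48-hour compound exposure of cells in 96-well plates, five concentrations, linear interpolation of endpoints. At the GI50, growth is halved. TGI is the concentration that stops growth completely.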
How the values were obtained:
Assay in all cases: inhibition of tumour cell growth, NCI panel, 48 h
KM12 colon = system: KM12 colon
786-0 renal = system: 786-0 renal
SNB-19 CNS = system: SNB-19 CNS
EKVX NSCLC = system: EKVX NSCLC
HCC-2998 colon = system: HCC-2998 colon
MDA-MB-231 breast = system: MDA-MB-231 breast
SK-OV-3 ovarian = system: SK-OV-3 ovarian
A498 renal = system: A498 renal
UACC-257 melanoma = system: UACC-257 melanoma
BT-549 breast = system: BT-549 breast

O=C1OC(OC/C(Br)=C(/Br)COC2OC(=O)C(Cl)=C2Cl)C(Cl)=C1Cl (stereo not drawn)
TGI (KM12 colon): 21.8 µM | TGI (786-0 renal): 14.1 µM | TGI (SNB-19 CNS): 37 µM | TGI (EKVX NSCLC): 32.2 µM | TGI (HCC-2998 colon): 34.1 µM | TGI (MDA-MB-231 breast): 17 µM | TGI (SK-OV-3 ovarian): > 55.8 µM | TGI (A498 renal): 38 µM | TGI (UACC-257 melanoma): 25.5 µM

Cc1ccccc1NC(=O)c1cc2ccccc2cc1O
GI50 (KM12 colon): 3.36 µM | TGI (KM12 colon): > 100 µM | GI50 (786-0 renal): 3.41 µM | TGI (786-0 renal): > 100 µM | GI50 (SNB-19 CNS): 4.6 µM | TGI (SNB-19 CNS): > 100 µM | GI50 (EKVX NSCLC): 2.36 µM | TGI (EKVX NSCLC): 91.8 µM | GI50 (HCC-2998 colon): 4.4 µM | TGI (HCC-2998 colon): 26.2 µM | GI50 (MDA-MB-231 breast): 3.17 µM | TGI (MDA-MB-231 breast): 15.2 µM | GI50 (SK-OV-3 ovarian): 2.64 µM | TGI (SK-OV-3 ovarian): 14.6 µM | GI50 (BT-549 breast): 3.46 µM | TGI (BT-549 breast): 8.43 µM | GI50 (UACC-257 melanoma): 3.52 µM | TGI (UACC-257 melanoma): 16.2 µM

O=C1/C(=C\c2ccccc2)c2ccccc2N1/N=C\c1ccccc1
TGI (KM12 colon): > 100 µM | TGI (786-0 renal): > 100 µM | TGI (SNB-19 CNS): > 100 µM | TGI (EKVX NSCLC): > 100 µM | TGI (HCC-2998 colon): > 100 µM | TGI (SK-OV-3 ovarian): > 100 µM | TGI (A498 renal): > 100 µM | TGI (UACC-257 melanoma): > 100 µM

O=S(=O)(N/N=C/c1ccc(Cl)cc1Cl)c1ccccc1
TGI (KM12 colon): > 100 µM | TGI (786-0 renal): > 100 µM | TGI (EKVX NSCLC): > 100 µM | TGI (HCC-2998 colon): > 100 µM | TGI (SK-OV-3 ovarian): > 100 µM | TGI (A498 renal): > 100 µM | TGI (UACC-257 melanoma): > 100 µM

N#CC(C(=O)CCC(=O)Nc1ccc(Cl)c(Cl)c1)c1ccc(Cl)cc1 (stereo not drawn)
TGI (KM12 colon): > 100 µM | TGI (786-0 renal): > 100 µM | TGI (SNB-19 CNS): > 100 µM | TGI (EKVX NSCLC): > 100 µM | TGI (HCC-2998 colon): > 100 µM | TGI (A498 renal): > 100 µM | TGI (UACC-257 melanoma): > 100 µM

COc1ccc2c(c1OC)C(=O)O[C@@H]2[C@H]1c2c(c(Br)c3c(c2OC)OCO3)CCN1C
GI50 (KM12 colon): 4.49 µM | TGI (KM12 colon): > 100 µM | GI50 (786-0 renal): 12 µM | TGI (786-0 renal): > 100 µM | GI50 (SNB-19 CNS): 75.9 µM | TGI (SNB-19 CNS): > 100 µM | GI50 (EKVX NSCLC): 41.8 µM | TGI (EKVX NSCLC): > 100 µM | GI50 (SK-OV-3 ovarian): > 100 µM | TGI (SK-OV-3 ovarian): > 100 µM | GI50 (A498 renal): 27.6 µM | TGI (A498 renal): > 100 µM | GI50 (BT-549 breast): > 100 µM | TGI (BT-549 breast): > 100 µM | GI50 (UACC-257 melanoma): 7.76 µM | TGI (UACC-257 melanoma): > 100 µM

Cn1ncnc1C1c2n[nH]c(=O)c3cc(F)cc(c23)NC1c1ccc(F)cc1 (stereo not drawn)
GI50 (KM12 colon): > 100 µM | TGI (KM12 colon): > 100 µM | GI50 (786-0 renal): > 100 µM | TGI (786-0 renal): > 100 µM | GI50 (SNB-19 CNS): 11.2 µM | TGI (SNB-19 CNS): > 100 µM | GI50 (HCC-2998 colon): > 100 µM | TGI (HCC-2998 colon): > 100 µM | GI50 (MDA-MB-231 breast): > 100 µM | TGI (MDA-MB-231 breast): > 100 µM | GI50 (SK-OV-3 ovarian): > 42.7 µM | TGI (SK-OV-3 ovarian): > 100 µM | GI50 (A498 renal): 5 µM | TGI (A498 renal): > 94.3 µM | GI50 (BT-549 breast): > 69.9 µM | TGI (BT-549 breast): > 100 µM | GI50 (UACC-257 melanoma): > 100 µM | TGI (UACC-257 melanoma): > 100 µM

COC1(Cc2ccccc2)C(=O)c2ccccc2N1C(C)=O (stereo not drawn)
TGI (KM12 colon): > 100 µM | TGI (786-0 renal): > 100 µM | TGI (SNB-19 CNS): > 100 µM | TGI (EKVX NSCLC): > 100 µM | TGI (HCC-2998 colon): > 100 µM | TGI (SK-OV-3 ovarian): > 100 µM | TGI (A498 renal): > 100 µM | TGI (UACC-257 melanoma): > 100 µM

O=[N+]([O-])c1cc2c(ccc3occc32)o1
GI50 (KM12 colon): 2.78 µM | TGI (KM12 colon): 7.31 µM | GI50 (786-0 renal): 2.37 µM | TGI (786-0 renal): 5 µM | GI50 (SNB-19 CNS): 3.78 µM | TGI (SNB-19 CNS): 45.9 µM | GI50 (HCC-2998 colon): 1.88 µM | TGI (HCC-2998 colon): 3.88 µM | GI50 (MDA-MB-231 breast): 1.84 µM | TGI (MDA-MB-231 breast): 5.83 µM | GI50 (SK-OV-3 ovarian): 3.03 µM | TGI (SK-OV-3 ovarian): 9.66 µM | GI50 (A498 renal): 2.21 µM | TGI (A498 renal): 4.58 µM | GI50 (BT-549 breast): 1.87 µM | TGI (BT-549 breast): 4.4 µM | GI50 (UACC-257 melanoma): 1.77 µM | TGI (UACC-257 melanoma): 3.88 µM

Cc1ccc(-c2c3c(N)c4c(nc3nc3c2c(C)nn3-c2ccccc2)CCC4)cc1
GI50 (KM12 colon): 4.4 µM | TGI (KM12 colon): 16 µM | GI50 (786-0 renal): 1.87 µM | TGI (786-0 renal): 3.65 µM | GI50 (SNB-19 CNS): 3.85 µM | TGI (SNB-19 CNS): 18 µM | GI50 (HCC-2998 colon): 3 µM | TGI (HCC-2998 colon): 8.43 µM | GI50 (MDA-MB-231 breast): 1.85 µM | TGI (MDA-MB-231 breast): 3.98 µM | GI50 (SK-OV-3 ovarian): 7.01 µM | TGI (SK-OV-3 ovarian): 15 µM | GI50 (A498 renal): 16.1 µM | TGI (A498 renal): 32.6 µM | GI50 (BT-549 breast): 20.7 µM | TGI (BT-549 breast): 45.5 µM | GI50 (UACC-257 melanoma): 14.1 µM | TGI (UACC-257 melanoma): 28.8 µM

COC(=O)C1=C(c2ccc(Cl)cc2)C(O)N=C(NN)N1 (stereo not drawn)
TGI (KM12 colon): > 100 µM | TGI (786-0 renal): > 100 µM | TGI (SNB-19 CNS): > 100 µM | TGI (EKVX NSCLC): > 100 µM | TGI (HCC-2998 colon): > 100 µM | TGI (SK-OV-3 ovarian): > 100 µM | TGI (UACC-257 melanoma): > 100 µM

Clc1ccc(/C=C/c2nc(Cl)c(-c3ccc(Cl)cc3)c(Cl)n2)cc1
TGI (KM12 colon): > 100 µM | TGI (786-0 renal): > 100 µM | TGI (SNB-19 CNS): > 100 µM | TGI (EKVX NSCLC): > 100 µM | TGI (MDA-MB-231 breast): > 100 µM | TGI (SK-OV-3 ovarian): > 100 µM | TGI (A498 renal): > 100 µM | TGI (BT-549 breast): > 100 µM | TGI (UACC-257 melanoma): > 100 µM

CCSC(=O)C1(C)OC2CCCCC2C1=O (stereo not drawn)
TGI (KM12 colon): > 100 µM | TGI (786-0 renal): > 100 µM | TGI (SNB-19 CNS): > 100 µM | TGI (HCC-2998 colon): > 100 µM | TGI (SK-OV-3 ovarian): > 100 µM | TGI (A498 renal): > 100 µM | TGI (UACC-257 melanoma): > 100 µM

CCOC(=O)/C=C1\Oc2ccccc2C1(C)O (stereo not drawn)
TGI (KM12 colon): > 100 µM | TGI (786-0 renal): > 100 µM | TGI (SNB-19 CNS): > 100 µM | TGI (EKVX NSCLC): > 100 µM | TGI (HCC-2998 colon): > 100 µM | TGI (SK-OV-3 ovarian): > 100 µM | TGI (A498 renal): > 100 µM | TGI (UACC-257 melanoma): > 100 µM

Cc1ccc(Nc2nc(C)c(C(/C=C/c3ccc4c(c3)OCO4)=N/Nc3ccc([N+](=O)[O-])cc3[N+](=O)[O-])s2)c([N+](=O)[O-])c1
TGI (KM12 colon): > 100 µM | TGI (786-0 renal): > 100 µM | TGI (SNB-19 CNS): > 100 µM | TGI (EKVX NSCLC): > 100 µM | TGI (HCC-2998 colon): > 100 µM | TGI (SK-OV-3 ovarian): > 100 µM | TGI (UACC-257 melanoma): > 100 µM

CN(C)N=Nc1nn(C(=O)Nc2ccc(Cc3ccccc3)cc2)c2ccccc12
GI50 (KM12 colon): 0.312 µM | TGI (KM12 colon): > 100 µM | GI50 (786-0 renal): 5.25 µM | TGI (786-0 renal): > 100 µM | GI50 (SNB-19 CNS): > 100 µM | TGI (SNB-19 CNS): > 100 µM | GI50 (HCC-2998 colon): 0.802 µM | TGI (HCC-2998 colon): > 47.7 µM | GI50 (MDA-MB-231 breast): 1.37 µM | TGI (MDA-MB-231 breast): > 100 µM | GI50 (SK-OV-3 ovarian): > 100 µM | TGI (SK-OV-3 ovarian): > 100 µM | GI50 (A498 renal): > 58.9 µM | TGI (A498 renal): > 100 µM | GI50 (BT-549 breast): 25.7 µM | TGI (BT-549 breast): > 100 µM | GI50 (UACC-257 melanoma): 0.862 µM | TGI (UACC-257 melanoma): > 100 µM

O=c1cc(-c2ccc(O)cc2)oc2cc(O)cc(O)c12
TGI (KM12 colon): 82.9 µM | TGI (786-0 renal): > 100 µM | TGI (SNB-19 CNS): > 100 µM | TGI (EKVX NSCLC): 96.9 µM | TGI (HCC-2998 colon): 56.8 µM | TGI (SK-OV-3 ovarian): 89.8 µM | TGI (UACC-257 melanoma): 73.9 µM

O=c1[nH]cnc2c1ncn2CCCCO
TGI (KM12 colon): > 100 µM | TGI (786-0 renal): > 100 µM | TGI (SNB-19 CNS): > 100 µM | TGI (EKVX NSCLC): > 100 µM | TGI (HCC-2998 colon): > 100 µM | TGI (A498 renal): > 100 µM | TGI (UACC-257 melanoma): > 100 µM

CC1=C(C(=O)Nc2ccccc2C)C(c2ccccc2C)C(C(=O)Nc2ccccc2C)=C(C)N1
TGI (KM12 colon): 37.8 µM | TGI (786-0 renal): 34.5 µM | TGI (SNB-19 CNS): 56.9 µM | TGI (EKVX NSCLC): 42.3 µM | TGI (HCC-2998 colon): 36.4 µM | TGI (A498 renal): > 100 µM | TGI (UACC-257 melanoma): 72.6 µM

COC1OC(C(C)O)C2OC(C)(C)OC12 (stereo not drawn)
TGI (KM12 colon): > 100 µM | TGI (786-0 renal): > 100 µM | TGI (SNB-19 CNS): > 100 µM | TGI (EKVX NSCLC): > 100 µM | TGI (MDA-MB-231 breast): > 100 µM | TGI (SK-OV-3 ovarian): > 100 µM | TGI (A498 renal): > 100 µM | TGI (BT-549 breast): > 100 µM | TGI (UACC-257 melanoma): > 100 µM

Source: PubChem BioAssay (NCI)
